This note sets out measurements from US11771737B2, “Treating or preventing adverse liver conditions” (priority 2017, dated 2023).

One experiment relates to A20 tumor cells. Kind of experiment: Tail vein A20 tumor cell injection, liver metastasis. Type of experiment: in vivo, BALB/c mice. The conditions noted are these: A20 tumor-bearing antibiotic (vancomycin)-administered mice, ω-MCA feeding. The source says:
Liver metastases were counted three weeks after injection. Cumulative data are shown. n=8, p<0.05, Student's t-test.
FIG. 7B is a dot plot showing liver weight of liver sections in mice that received tail vein injection of A20 tumor cells. n=4, p<0.05, Student's t-test.
(§1) B16-F1 and A20 cells were purchased from ATCC (Manassas, Va., USA). EL4 cells were used as described (Ma et al., J. Leukoc. Biol., 92: 1199-1206 (2012), incorporated by reference herein). 1×10^6 EL4 tumor cells were given by subcutaneous (s.c.) or tail vein injection, 3×10^5 B16-F1 tumor cells were given by intrasplenic injection as described before (Eggert et al., Cancer Cell, 30: 533-547 (2016), incorporated by reference herein), and 1×10^6 A20 tumor cells were given by tail vein injection.
Mice were kept on ABX cocktail and fresh ABX was replaced every other day. Mice were fed with bile acids by oral gavage 48, 24 and 16 hrs prior to sacrifice. For A20 tumor bearing mice, ω-MCA were given 3 times/week. ω-MCA and CDCA were dissolved in corn oil and given at the dose of 6 mg/15 g body weight.
A20 tumor cells were i.v. injected into vancomycin-(Vanco) or H2O-administered BALB/c mice. ω-MCA (5 mg/mouse) was given by oral gavage three times/week. aCD4 antibody (GK1.5) was given i.p. at the dose of 500 μg/mouse weekly to deplete […] cells. FIGS. 30A and 30B show the results after 3 weeks.

Another experiment deals with EL4 tumor cells. Kind of experiment: Tail vein EL4 tumor cell injection, liver tumors in wild-type, CXCR6 and CD1d knockout mice. Type of experiment: in vivo. The note with it: ABX-administered CXCR6−/− mice.
Excerpt: Measurements were taken 3 weeks after injection. Cumulative data are shown. n=10 for Wt-H2O, 7 for Wt-ABX, 4 for CXCR6^−/−-H2O, 5 for CXCR6^−/−-ABX, 5 for CD1d^−/−-H2O, 4 for CD1d^−/−-ABX. p<0.05, two-way ANOVA.
as §1
NKT cells are known to have anti-tumor function and can directly kill CD1d expressing tumors. All three tested tumor models (B16, EL4 and A20) expressed […] at different levels (FIG. 22). To investigate the role of NKT cells in this setting, CD1d knockout and CXCR6 knockout mice were used. CD1d knockout mice completely lack NKT cells, while CXCR6 knockout mice have a selective NKT deficiency in the liver. Loss of hepatic NKT cells in these mice was confirmed (FIG. 23). […]
EL4 tumor cells were injected into ABX-pre-administered CXCR6^−/− mice. ω-MCA was given as described above. Liver surface tumors were counted three weeks after tumor injection.

For another experiment, the system named is CXCL16. Kind of experiment: CXCL16 mRNA in primary murine LSECs administered bile acids. Type of experiment: cell-based, mice. The conditions noted are these: primary murine LSECs in vitro, 24 hours. The source says:
FIG. 28E is a dot plot showing CXCL16 mRNA levels of isolated LSECs administered different bile acids, in accordance with embodiments of the invention. n=5, p<0.05, one-way ANOVA.
FIG. 28F is a dot plot showing CXCL16 mRNA levels of isolated LSECs administered a combination of T-b-MCA with T-w-MCA or ω-MCA. n=5, p<0.05, one-way ANOVA.
Primary mice liver sinusoidal endothelia cells were isolated as previously described (Limmer et al., Nat. Med., 6: 1348-1354 (2000), incorporated by reference herein). Briefly, mice were CO2 euthanized, and then the portal vein was cannulated, and the liver was perfused with 0.05% collagenase in Ca^2+ deprived medium. Liver cells were dissociated, and parenchymal cells were killed by incubation in 0.04% collagenase in Gey's balanced salt solution at 37° C. for 15 minutes. Then density gradient centrifugation was performed using Nycodenz solution at the final solution of 1.089 g/cm^3. Liver sinusoidal endothelial cells (LSEC) were isolated using anti-LSEC microbeads (Miltenyi, Bergisch Gladbach, Germany) according to the manufacturer's instructions. LSECs or the human SK-HEP1 cell line (ATCC, HTB-52) were administered different bile acids for 24 hours. Gene expression was analyzed by real-time PCR. […]

The subject of the next experiment is hepatic NKT cells. Kind of experiment: In vivo bile acids feeding, hepatic NKT cell levels. The note with it: ABX-administered mice, oral gavage 6 mg/15 g body weight at 48, 24 and 16 hrs.

For the molecule `C[C@H](CCC(=O)O)[C@H]1CC[C@H]2[C@@H]3[C@@H](O)[C@H](O)[C@@H]4C[C@H](O)CC[C@]4(C)[C@H]3CC[C@]12C` [ω-MCA, ω-muricholic acid], the liver tumor growth entry in the experiment with A20 tumor cells is listed as “reversed the inhibition of liver tumor growth”. Also, the liver tumor development entry in the experiment with EL4 tumor cells is on record as “failed to affect”. Moreover, the “cxcl16 mRNA expression” value in the experiment on CXCL16 was “decreased”. Besides, the “hepatic NKT accumulation” value in the experiment with hepatic NKT cells is recorded as “effectively reversed hepatic NKT accumulation”.
